For five compounds, IC50, Km and kcat results are on record in article PMC7170507, “Biosynthesis of depsipeptides with a 3-hydroxybenzoate moiety and selective anticancer activities involves a chorismatase” (The Journal of Biological Chemistry, 2020).

As a reminder, the IC50 is the midpoint of a concentration-inhibition curve. Lower therefore signals greater potency. Usually Km stands for the substrate concentration at which the rate is half of its maximum. The term kcat denotes the maximal rate divided by the concentration of active sites.

The test system of data set [1] is SGC7901. In words: cells. Particulars: Homo sapiens, SGC-7901, 72 h. The arrangement: species or system human cancer cell lines; CCK8 cell viability assay, absorbance at 450 nm. Here is the method:
(§1) Anticancer activities were evaluated by using human lung cancer cells PC9, human colorectal cancer cells Sw620, and human melanoma cells A375. Toxicity study was conducted by using three types of normal cells, 16HBE (an immortalized human bronchial epithelial cells), NCM460 (a normal human colon mucosal epithelial cell line), and HaCaT (a spontaneously immortalized keratinocyte cell line from adult human skin). All the cell lines were obtained from the Shanghai Institute of Cell Biology, Chinese Academy of Sciences. The cell cultivation media (Gibco) were supplemented with 10% fetal bovine serum, 100 units/ml penicillin, and 100 μg/ml streptomycin. The cells were maintained in a humidified atmosphere with 5% CO2 at 37 °C. Half-maximal inhibitory concentration (IC50) was determined by a CCK8 assay (Dojindo, Tokyo, Japan). Briefly, the cells were seeded in 96-well plates at a density of 3 × 10^3 cells/well and incubated for 24 h at 37 °C. Then the cells were treated with various concentrations of compound and incubated for 72 h. Afterward, 10 μl of CCK8 reagent was added to each well before a further incubation for 0.5–4.0 h at 37 °C. Finally, the absorbance of each well in the 96-well plate was measured at 450 nm using microplate reader. Because the 3-FAS moiety has been proposed to be the pharmacophore of anticancer activities in NATs ([3], [11]), we wished to know whether compounds 1–4 with the alternative 3-HBA moiety, instead of 3-FAS, would retain anticancer activities. The carcinoma cell lines of human lung (PC9), colon (Sw620), and melanoma (A375) were firstly selected to evaluate the activities of them, using as positive control the chemotherapeutic drug cisplatin. […] This is consistent with the activities previously shown for unantimycin A, which structurally differs from 1 at the C4 alkyl group and which has shown moderate cytotoxicity (IC50 = ∼10 μM) against human cervix epidermoid carcinoma, promyelocytic leukemia, and sarcoma cell lines ([13]). […] Further work will be required to establish convincingly that the apparently selective anticancer activities of 1–4 are endowed by the absence of binding to the quinone reduction site of the cytochrome bc1 complex, which makes antimycin A lethal to the mitochondrial respiratory chain ([12], [20]). Moreover, the broad-spectrum anticancer activities of 1–4 were evaluated by using six other carcinoma cell lines (Table S9).

Data set [2] deals with HCT-8. In words: cells. The arrangement: species or system human cancer cell lines; CCK8 cell viability assay, absorbance at 450 nm. The note with it: Homo sapiens, 72 h. Here is the method:
as §1

In data set [3] the test system is HT29. In words: cells. The arrangement: species or system human cancer cell lines; CCK8 cell viability assay, absorbance at 450 nm. Particulars: Homo sapiens, HT-29, 72 h. The method, then: as §1
Data set [4] concerns HepG2. In words: cells. The arrangement: species or system human cancer cell lines; CCK8 cell viability assay, absorbance at 450 nm. The note with it: Homo sapiens, 72 h. The method, then: as §1
Data set [5] concerns A549. In words: cells. Set-up: species or system human cancer cell lines; CCK8 cell viability assay, absorbance at 450 nm. The note with it: Homo sapiens, 72 h. Here is the method:
as §1

Data set [6] relates to Hela. Nature of the data set: cells. The arrangement: species or system human cancer cell lines; CCK8 cell viability assay, absorbance at 450 nm. Particulars: Homo sapiens, 72 h. The method, then: as §1
The subject of data set [7] is T1, C=C(O[C@@H]1C=C(C(=O)O)C=C[C@H]1O)C(=O)O.
T1 construct: catalytic Glu-325
In words: purified protein. Format: biochemical, Streptomyces conglobatus. The note with it: 50 mM Tris-HCl pH 8.0, 0.5 μM enzyme, 50-300 μM chorismate, 0.5 mM NADH, LDH.

`CCC(C)C1OC(=O)C(C)(C)C(O)C(Cc2ccccc2)OC(=O)C(C(C)C)OC(=O)C(NC(=O)c2cccc(O)c2)C(C)OC1=O` (centres unmarked) [compound 2, 2]: the half-inhibitory concentration (IC50) in data set [1] was 9.57 ± 0.22 µM; in data set [2], 9.23 ± 0.16 µM; in data set [3] it was 14.9 ± 0.3 µM; in data set [4], 15.2 ± 0.7 µM; in data set [5] it was 2.99 ± 0.02 µM; in data set [6], 15.3 ± 1.5 µM.
On to `CC(C)C1OC(=O)C(NC(=O)c2cccc(O)c2)C(C)OC(=O)C(C(C)C)OC(=O)C(C)(C)C(=O)C(Cc2ccccc2)OC1=O` (centres unmarked) [compound 3, 3], for which the half-maximal inhibitory concentration (IC50) in data set [1] came out at 6.63 ± 0.17 µM; in data set [2] it was 10.9 ± 0.8 µM; in data set [3], 17.6 ± 0.9 µM; in data set [4] it was 17.5 ± 0.6 µM; in data set [5], 2.32 ± 0.01 µM; in data set [6], 23 ± 0.4 µM.
Consider `CC(C)C1OC(=O)C(NC(=O)c2cccc(O)c2)C(C)OC(=O)C(C(C)C)OC(=O)C(C)(C)C(O)C(Cc2ccccc2)OC1=O` (centres unmarked) [compound 4, 4], for which the 50% inhibitory concentration (IC50) in data set [1] is 10.1 ± 0.3 µM; in data set [2], 8.95 ± 0.13 µM; in data set [3], 17.2 ± 0.8 µM; in data set [4], 18.3 ± 0.7 µM; in data set [5] it was 2.97 ± 0.01 µM; in data set [6] it was 23.6 ± 0.5 µM.
As to Nat-hyg5 (Streptomyces conglobatus), in data set [7], the Michaelis-Menten constant (Km) worked out at 54 ± 6 µM and the kcat is 0.084 ± 0.003 s⁻¹.
On to `CCC(C)C1OC(=O)C(C)(C)C(=O)C(Cc2ccccc2)OC(=O)C(C(C)C)OC(=O)C(NC(=O)c2cccc(O)c2)C(C)OC1=O` (centres unmarked) [compound 1, unantimycin B], for which the IC50 in data set [1] was found to be 11.9 ± 0.1 µM; in data set [2] it was 17.9 ± 1.4 µM; in data set [3] it was 19.4 ± 0.1 µM; in data set [4] it was 13.4 ± 0.1 µM; in data set [5], 7.7 ± 0.07 µM; in data set [6] it was 18.2 ± 0.2 µM.
